Holding throughout (type): binding
One assay has as its target GABARAP WT (Homo sapiens, UniProt O95166). Description: ITC of ER-phagy receptor peptides with GABARAP. The following applies: 25 °C, 0.5 mM peptide in syringe, ± fitting error; for N (site), stoichiometry of binding: GABARAP WT in cell. The text has this:
(§1) All plasmids for expression of recombinant proteins and peptides in bacteria were based on a pGEX6P-1 vector (GE Healthcare). Construction of pGEX6P-ScAtg8 (1-116) K26P and pGEX6P-rat LC3B (1-120) was previously described[35],[47]. All mutations were generated by PCR-based mutagenesis. The genes were amplified by PCR and inserted downstream of the HRV 3C protease recognition site by NEBuilder HiFi DNA Assembly Master Mix (New England Biolabs) except for that encoding human GABARAP (1-116), which was inserted using restriction enzymes for the NdeI and BamHI sites. Plasmids for expression of fusion proteins for crystallization were constructed by inserting the genes encoding Atg40^237–252, human FAM134B^450–468, human SEC62^361–376 with the T367D mutation, and human RTN3^245–264 isoform e into upstream of the sequence encoding Atg8 K26P of pGEX6P-Atg8 (the K26P mutation was introduced for stabilizing Atg8) or upstream of the sequence encoding GABARAP of pGEX6P-GABARAP (with the F3S V4T mutations for enhancing crystallization). For phase-separation experiments, the mCherry and BNDL1[25],[26] sequences were inserted into upstream and downstream of the ATG8 gene in pGEX6P-Atg8 K26P, respectively. pGEX-SNAP-40C was constructed by the removal of the HRV 3C protease recognition site and the insertion of the SNAP sequence from pSNAP-tag(T7) vector (New England Biolabs) with a linker (Gly–Gly–Gly–Ser–Gly–Gly–Gly) and Atg40^194–256 following a linker (Ser–Ala–Ser–Ser) to upstream and downstream of GST in pGEX6P-1 vector, respectively. In the construction of plasmids for peptide production, a Tyr residue was attached to their C termini for enabling the quantification by absorbance at 280 nm (Supplementary Table 4).
(§2) Some of peptides (Supplementary Table 4) and all proteins except Atg40-6His were expressed in E. coli BL21 (DE3). Bacteria were cultured at 37 °C until OD600 became 0.8–1.0 and further cultured at 16 °C with 100 μM IPTG overnight. After centrifugation, the pellets were resuspended with 20 ml PBS with 0.5 mM EDTA and lysed by sonication for 10 min. […]

A further assay concerns the target LC3B WT (Rattus norvegicus, UniProt Q62625). Description: ITC of peptides with LC3B. The following applies: 25 °C, 0.5 mM peptide in syringe, LC3B WT in cell 10 times lower, single-site model, ± fitting error.
Text: as §1, §2

Another assay addresses LC3A WT (Homo sapiens, UniProt Q9H492). Description: ITC of peptides with LC3A. The following applies: 25 °C, 0.5 mM peptide in syringe, LC3A WT in cell 10 times lower, single-site model, ± fitting error. The protocol:
(§3) Some of peptides (Supplementary Table 4) and all proteins except Atg40-6His were expressed in E. coli BL21 (DE3). Bacteria were cultured at 37 °C until OD600 became 0.8–1.0 and further cultured at 16 °C with 100 μM IPTG overnight. After centrifugation, the pellets were resuspended with 20 ml PBS with 0.5 mM EDTA and lysed by sonication for 10 min. After centrifugation, the supernatants were incubated with GST-accept resin (Nacalai tesque). After three times wash by PBS, the proteins were eluted with glutathione buffer (10 mM glutathione and 50 mM Tris pH 8.0). The buffer of the eluates was exchanged with PBS by a Bio-Scale Mini BioGel P-6 desalting column (Bio-Rad). After incubation with GST-fused HRV 3 C protease at 4 °C overnight, the samples were subjected to a GST-accept resin column to remove excised GST and the protease. RTN3^245–264-GABARAP was purified by cation-exchange chromatography using CM Sepharose FF column (GE Healthcare) with 500 mM MES pH 6.0 as buffer B and 50 mM MES pH 6.0 and 1 M NaCl as buffer C. The samples were further subjected to size-exclusion chromatography with 20 mM HEPES pH 6.8, 150 mM sodium chloride except for mCherry-Atg8-CC^tetramer (20 mM HEPES pH 6.8, 500 mM sodium chloride) using a Superdex 75 10/300 or Superdex 200 26/60 column. As described in Supplementary Table 4, the Atg40^237–252 M245A and Atg40^237–252 D243A D247A peptides were synthesized by Cosmo Bio, and the FAM134B^453–460 and SEC62^361–368 peptides were synthesized by BEX Co., Ltd. The Atg40^234–252 peptide and its variants were prepared using Liberty Blue peptide synthesizer (CEM Corporation). After dissolving these synthesized peptides in 300 μl water with ~10 μl ammonium hydroxide, they were subjected to size-exclusion chromatography with 20 mM HEPES pH 6.8 containing 150 mM sodium chloride using a Superdex 75 10/300 column.
Peptides used in ITC are listed in Supplementary Table 4. ITC experiments were performed using Microcal iTC200 calorimeter (Malvern Panalytical), with stirring at 1000 rpm at 25 °C. […]

The target in the next assay is LC3C WT (Homo sapiens, UniProt Q9BXW4). Description: ITC of peptides with LC3C. The following applies: 25 °C, 0.5 mM peptide in syringe, LC3C WT in cell 10 times lower, single-site model, ± fitting error. The protocol:
as §3
Peptides used in ITC are listed in Supplementary Table 4. ITC experiments were performed using Microcal iTC200 calorimeter (Malvern Panalytical), with stirring at 1000 rpm at 25 °C. Atg40, FAM134B, SEC62, and RTN3 peptides were prepared as injection samples from the syringe. Concentrations of FAM134B, SEC62, and RTN3 peptides were 0.5 mM, whereas those of Atg40^234–252 and Atg40^237–252 peptides were 2.0 and 1.8 mM, respectively. In total, 200 μl Atg8, LC3A, LC3B, LC3C, GABARAP, GABARAPL1, and GABARAPL2 with 10 times lower concentration than the syringe samples were filled in the cell. As an exception, 1.8 mM Atg8 was filled in the cell when 1.8 mM Atg40^237–252 D243A D247A was in a syringe. The titration involved 18 injections of 2 μl of the syringe sample at intervals of 120 s into a cell after one injection of 0.4 μl of syringe sample. […]

Structures are written as SMILES. Like-named read-outs stand apart in the source and are kept apart here. Where a SMILES comes first, the peptide text is derived from it.

GABARAP WT, sequence (O95166 1-116): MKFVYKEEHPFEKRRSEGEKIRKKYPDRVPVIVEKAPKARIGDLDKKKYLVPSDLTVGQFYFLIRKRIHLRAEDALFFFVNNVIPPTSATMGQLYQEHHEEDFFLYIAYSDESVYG
LC3C WT, sequence (Q9BXW4 whole entry): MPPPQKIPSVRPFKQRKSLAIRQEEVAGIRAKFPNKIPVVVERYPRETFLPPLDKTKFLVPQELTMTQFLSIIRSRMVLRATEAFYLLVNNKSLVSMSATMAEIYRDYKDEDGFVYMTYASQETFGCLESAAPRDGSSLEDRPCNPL

For `CC[C@H](C)[C@H](NC(=O)[C@H](CCC(N)=O)NC(=O)[C@H](CC(=O)O)NC(=O)[C@H](CC(C)C)NC(=O)[C@H](CCC(=O)O)NC(=O)[C@H](CO)NC(=O)[C@H](CCC(N)=O)NC(=O)[C@H](CC(=O)O)NC(=O)[C@H](C)NC(=O)[C@H](CC(C)C)NC(=O)[C@H](CCC(=O)O)NC(=O)[C@H](Cc1ccccc1)NC(=O)[C@H](CC(=O)O)NC(=O)[C@H](CC(=O)O)NC(=O)CNC(=O)[C@H](CCC(=O)O)NC(=O)[C@H](CCC(=O)O)NC(=O)[C@@H](NC(=O)[C@H](CC(=O)O)NC(=O)[C@@H](NC(=O)[C@H](CC(=O)O)NC(=O)[C@H](CCC(=O)O)NC(=O)[C@H](CCC(=O)O)NC(=O)[C@@H]1CCCN1C(=O)CN)[C@@H](C)O)[C@@H](C)O)C(=O)N[C@@H](CCC(=O)O)C(=O)N[C@@H](CO)C(=O)N[C@@H](CCC(=O)O)C(=O)N[C@@H](CC(C)C)C(=O)N[C@@H](Cc1ccc(O)cc1)C(=O)O` [FAM134B444-470 L458A] (H-GPEEDTDTEEGDDFELADQSELDQIESELY-OH), the “N (site), stoichiometry of binding” value at GABARAP WT is recorded as 0.99 ± 0.03. Besides, at GABARAP WT (20 mM HEPES pH 6.8, 150 mM NaCl, GABARAP WT in cell 10 times lower, single-site model), the Kd came out at 2.06 ± 0.61 µM. `CC[C@H](C)[C@H](NC(=O)[C@H](CCC(N)=O)NC(=O)[C@H](CC(=O)O)NC(=O)[C@H](CC(C)C)NC(=O)[C@H](C)NC(=O)[C@H](CO)NC(=O)[C@H](CCC(N)=O)NC(=O)[C@H](CC(=O)O)NC(=O)[C@H](CC(C)C)NC(=O)[C@H](CC(C)C)NC(=O)[C@H](C)NC(=O)[C@H](Cc1ccccc1)NC(=O)[C@H](CC(=O)O)NC(=O)[C@H](CC(=O)O)NC(=O)CNC(=O)[C@H](CCC(=O)O)NC(=O)[C@H](CCC(=O)O)NC(=O)[C@@H](NC(=O)[C@H](CC(=O)O)NC(=O)[C@@H](NC(=O)[C@H](CC(=O)O)NC(=O)[C@H](CCC(=O)O)NC(=O)[C@H](CCC(=O)O)NC(=O)[C@@H]1CCCN1C(=O)CN)[C@@H](C)O)[C@@H](C)O)C(=O)N[C@@H](CCC(=O)O)C(=O)N[C@@H](CO)C(=O)N[C@@H](CCC(=O)O)C(=O)N[C@@H](CC(C)C)C(=O)N[C@@H](Cc1ccc(O)cc1)C(=O)O` [FAM134B^444-470 E456A E462A] (H-GPEEDTDTEEGDDFALLDQSALDQIESELY-OH) had a Kd on LC3B WT of 8.2 ± 2.46 µM. Take `CC[C@H](C)[C@H](NC(=O)[C@@H](NC(=O)[C@H](CCC(=O)O)NC(=O)[C@H](Cc1ccccc1)NC(=O)[C@@H]1CCCN1C(=O)[C@H](CO)NC(=O)[C@H](CCC(=O)O)NC(=O)[C@@H](N)Cc1ccc(O)cc1)C(C)C)C(=O)N[C@H](C(=O)N[C@@H](CC(=O)O)C(=O)O)[C@@H](C)CC` [RTN3245-253 WT (∆helix)] (H-YESPFEVIID-OH): the Kd at LC3A WT stood at 21.7 ± 3.62 µM. On to `CC[C@H](C)[C@H](NC(=O)[C@@H](NC(=O)[C@H](CCC(=O)O)NC(=O)[C@H](Cc1ccccc1)NC(=O)[C@@H]1CCCN1C(=O)[C@H](CO)NC(=O)[C@@H](N)CCC(=O)O)C(C)C)C(=O)N[C@H](C(=O)N[C@@H](CC(=O)O)C(=O)N[C@@H](CCCCN)C(=O)N[C@@H](C)C(=O)N[C@@H](C)C(=O)N[C@@H](Cc1ccccc1)C(=O)N[C@@H](CC(=O)O)C(=O)N[C@@H](CCCCN)C(=O)N[C@@H](CCC(=O)O)C(=O)N[C@@H](Cc1ccccc1)C(=O)N[C@@H](CCCCN)C(=O)N[C@@H](CC(=O)O)C(=O)N[C@@H](CO)C(=O)N[C@@H](Cc1ccc(O)cc1)C(=O)O)[C@@H](C)CC` [RTN3245-264 WT] (H-ESPFEVIIDKAAFDKEFKDSY-OH), for which the Kd result at LC3C WT is on record as “not detected”. As for `CC[C@H](C)[C@H](NC(=O)[C@H](CCSC)NC(=O)[C@H](CCC(=O)O)NC(=O)[C@H](Cc1ccccc1)NC(=O)[C@H](CC(=O)O)NC(=O)[C@@H](N)CC(N)=O)C(=O)N[C@H](C(=O)N[C@@H](CCCCN)C(=O)N[C@@H](Cc1ccc(O)cc1)C(=O)O)[C@@H](C)O` [SEC62^361-368 (Δhelix)] (H-NDFEMITKY-OH), at LC3C WT (read-out: Kd), the Kd came out at 31.9 ± 13.2 µM. Take `CSCC[C@H](NC(=O)[C@H](CCC(=O)O)NC(=O)[C@H](Cc1ccccc1)NC(=O)[C@H](CC(=O)O)NC(=O)[C@H](CC(N)=O)NC(=O)CNC(=O)[C@H](CC(N)=O)NC(=O)CNC(=O)[C@H](CO)NC(=O)[C@H](CO)NC(=O)[C@H](Cc1c[nH]cn1)NC(=O)[C@@H]1CCCN1C(=O)CN)C(=O)N[C@@H](C)C(=O)N[C@H](C(=O)N[C@@H](CCCCN)C(=O)N[C@@H](CCC(=O)O)C(=O)N[C@@H](CCC(=O)O)C(=O)N[C@@H](CC(C)C)C(=O)N[C@@H](CCC(=O)O)C(=O)N[C@@H](CCC(N)=O)C(=O)N[C@@H](CCC(N)=O)C(=O)N[C@H](C(=O)N[C@@H](CC(=O)O)C(=O)N[C@@H](Cc1ccc(O)cc1)C(=O)O)[C@@H](C)O)[C@@H](C)O` [SEC62355-376 I366A] (H-GPHSSGNGNDFEMATKEELEQQTDY-OH): the “N (site), stoichiometry of binding” value on GABARAP WT came out at 0.87 ± 0.10.
